The results in this text go back to patent US12060349B2, “Glucosylceramide synthase inhibitors” (Genzyme Corporation, priority 2012, dated 2024).

What is called IC50 is the concentration needed to halve the response being measured.

Assay [1] deals with T1, glucosylceramide synthase (Homo sapiens, UniProt Q16739).
T1 construct: Microsomes were isolated from A375 human melanoma cells; endogenous in cells; host or cells: A375 human melanoma cells (microsomal fraction, 100,000 g pellet)
T1 sequence (Q16739 1-394): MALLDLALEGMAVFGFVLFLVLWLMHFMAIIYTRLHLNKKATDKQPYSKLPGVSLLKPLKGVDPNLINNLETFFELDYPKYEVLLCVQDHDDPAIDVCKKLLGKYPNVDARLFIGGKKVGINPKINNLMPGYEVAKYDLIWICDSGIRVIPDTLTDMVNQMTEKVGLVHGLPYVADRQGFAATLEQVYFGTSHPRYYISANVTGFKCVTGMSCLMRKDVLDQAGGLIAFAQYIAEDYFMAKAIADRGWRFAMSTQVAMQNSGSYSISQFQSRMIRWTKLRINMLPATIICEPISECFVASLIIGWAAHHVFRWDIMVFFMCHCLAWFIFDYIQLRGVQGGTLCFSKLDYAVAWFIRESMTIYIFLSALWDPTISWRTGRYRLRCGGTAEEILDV
As to the kind of experiment: microsomal assay measuring conversion of ceramide to glucosylceramide by HPLC (GCS IC50). The format is biochemical. The conditions noted are these: concentration causing 50% inhibition of glucosylceramide synthase activity. In a few lines: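 Microsomal preparation assayed for glucosylceramide synthase by direct HPLC measurement of ceramide conversion to glucosylceramide. GCS IC50 is the compound concentration giving 50% inhibition of enzyme activity.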

The subject of assay [2] is GM3 expression on the cell surface, B16 mouse melanoma cells. Kind of assay: cell based phenotypic assay, cell surface GM3 by antibody mediated immunofluorescence, B16 (GM3 B16 IC50). The conditions noted are these: Mus musculus, 50% inhibition of GM3 expression on the cell surface. The essentials:
(§1)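 Both lines undergo the phenotypic GM3 assay, and viability is recorded from that same cell-based run.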

Assay [3] relates to GM3 expression on the cell surface, C32 human melanoma cells. Kind of assay: cell based phenotypic assay, cell surface GM3 by antibody mediated immunofluorescence, C32 (GM3 C32 IC50). The conditions noted are these: Homo sapiens, 50% inhibition of GM3 expression on the cell surface. The essentials:
as §1

The next assay concerns B16 mouse melanoma cells. Kind of assay: cell viability in the B16 cell-based assay (Viability, B16 IC50). In a few lines: (§2)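 Two melanoma lines, mouse B16 and human C32, were treated and surface GM3 quantified by antibody immunofluorescence for IC50. A parallel viability readout gives the concentration killing 50% of cells, with values over 10 indicating no cell death.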
For another assay, the system named is C32 human melanoma cells. As to the kind of experiment: cell viability in the C32 cell-based assay (Viability, C32 IC50). The conditions noted are these: concentration causing 50% cell death, values greater than 10 represent a lack of cell death. In a few lines: as §2
The mark [4] stands for this setting: B16 mouse melanoma cells, read-out: GM3 B16 IC50.
Where [5] appears, read: C32 human melanoma cells, read-out: GM3 C32 IC50.
Setting [6] is: Mus musculus, B16, B16 cells, concentration causing 50% cell death, values greater than 10 represent a lack of cell death, read-out: Viability, B16 IC50.
[7] abbreviates: Homo sapiens, C32, C32 cells, read-out: Viability, C32 IC50.
The mark [8] stands for this setting: read-out: GM3 B16 IC50, B16 mouse melanoma cells.
The mark [9] stands for this setting: read-out: GM3 C32 IC50, C32 human melanoma cells.
[10] abbreviates: read-out: Viability, B16 IC50, B16 cells, concentration causing 50% cell death, values greater than 10 represent a lack of cell death.
The mark [11] stands for this setting: read-out: Viability, C32 IC50, C32 cells.
Setting [12] is: Mus musculus, B16, read-out: Viability, B16 IC50.
Setting [13] is: Homo sapiens, C32, read-out: Viability, C32 IC50, C32 cells.

Structures are written as SMILES. Where two headings read alike, the source gives them in different places. Bounds are passed on as bounds.

As to `CCCC1(NC(=O)NC(C)(C)C#Cc2ccc(COC)cc2)CN2CCC1CC2` (stereo not drawn) [Example 328, 1-(4-(4-(Methoxymethyl)phenyl)-2-methylbut-3-yn-2-yl)-3-(3-propylquinuclidin-3-yl)urea], the IC50 in assay [1] turned out to be 25.1 nM; in assay [2] (setting [4]), 115 nM; in assay [3] (setting [5]) it was 3.32 nM; with B16 mouse melanoma cells (setting [6]) it was 3160 nM; in the assay with C32 human melanoma cells (setting [7]) it was 3160 nM.
As to `COCCOc1ccc(C#CC(C)(C)NC(=O)OC2CN3CCC2CC3)cc1` (stereo not drawn) [Example 329, Quinuclidin-3-yl (4-(4-(2-methoxyethoxy)phenyl)-2-methylbut-3-yn-2-yl)carbamate], the 50% inhibitory concentration (IC50) in assay [1] is 3140 nM; in assay [2] (setting [8]) it was 2700 nM; in assay [3] (setting [9]), 284 nM; in the assay with B16 mouse melanoma cells (setting [10]), at least 10000 nM; in the assay on C32 human melanoma cells (setting [11]) it was at least 10000 nM.
As for `COCCCOc1ccc(C#CC(C)(C)NC(=O)OC2CN3CCC2CC3)cc1` (stereo not drawn) [Example 331, Quinuclidin-3-yl (4-(4-(3-methoxypropoxy)phenyl)-2-methylbut-3-yn-2-yl)carbamate], the IC50 in assay [1] was 1330 nM; in assay [2] (setting [8]), 1760 nM; in assay [3] (setting [9]) it was 118 nM; in the assay on B16 mouse melanoma cells (setting [10]) it was at least 10000 nM; with C32 human melanoma cells (setting [11]), at least 10000 nM.
For `CCC1(NC(=O)NC(C)(C)C#Cc2ccc(COCc3cccnc3)cc2)CN2CCC1CC2` (stereo not drawn) [Example 332, 1-(3-Ethylquinuclidin-3-yl)-3-(2-methyl-4-(4-((pyridin-3-ylmethoxy)methyl)phenyl)but-3-yn-2-yl)urea], the IC50 is 49.4 nM in assay [1]; 945 nM in assay [2] (setting [4]); 15.5 nM in assay [3] (setting [5]); at least 10000 nM in the assay on B16 mouse melanoma cells (setting [6]); at least 10000 nM in the assay with C32 human melanoma cells (setting [7]).
`CCCC1(NC(=O)NC(C)(C)C#Cc2ccc(COCc3cccnc3)cc2)CN2CCC1CC2` (stereo not drawn) [Example 333, 1-(2-Methyl-4-(4-((pyridin-3-ylmethoxy)methyl)phenyl)but-3-yn-2-yl)-3-(3-propylquinuclidin-3-yl)urea]: the IC50 in assay [1] was 16.1 nM; in assay [2] (setting [4]), 413 nM; in assay [3] (setting [5]), 6.18 nM; in the assay with B16 mouse melanoma cells (setting [6]), at least 10000 nM; with C32 human melanoma cells (setting [7]) it was 3160 nM.
Turning to `CC(C)(C)CCS(=O)(=O)c1ccc(C#CC(C)(C)NC(=O)OC2CN3CCC2CC3)cc1` (stereo not drawn) [Example 334, Quinuclidin-3-yl (4-(4-((3,3-dimethylbutyl)sulfonyl)phenyl)-2-methylbut-3-yn-2-yl)carbamate], the 50% inhibitory concentration (IC50) in assay [1] was 80.2 nM; in assay [2] (setting [8]), 317 nM; in assay [3] (setting [9]), 11.8 nM; in the assay with B16 mouse melanoma cells (setting [12]), 3280 nM; with C32 human melanoma cells (setting [13]), at least 10000 nM.
For the compound `CC(C)(C)CCS(=O)(=O)c1ccc(C#CC(C)(C)NC(=O)OC2CCN3CCC2CC3)cc1` (stereo not drawn) [Example 335, 1-Azabicyclo[3.2.2]nonan-4-yl (4-(4-((3,3-dimethylbutyl)sulfonyl)phenyl)-2-methylbut-3-yn-2-yl)carbamate], the IC50 is 14.6 nM in assay [1]; 193 nM in assay [2] (setting [4]); 4.32 nM in assay [3] (setting [5]); 2150 nM with B16 mouse melanoma cells (setting [6]); 1000 nM with C32 human melanoma cells (setting [7]).
The like results for `CC(C)(C)CCS(=O)(=O)c1ccc(C#CC(C)(C)NC(=O)NC2(C)CCN3CCC2CC3)cc1` (stereo not drawn) [Example 336, 1-(4-(4-((3,3-Dimethylbutyl)sulfonyl)phenyl)-2-methylbut-3-yn-2-yl)-3-(4-methyl-1-azabicyclo[3.2.2]nonan-4-yl)urea] were, in that order, 1.2 nM, 38.8 nM, 0.902 nM, at least 10000 nM and at least 10000 nM.
The like results for `CC(C)(C)CCS(=O)(=O)c1ccc(C#CC(C)(C)NC(=O)NC2(C)CN3CCC2CC3)cc1` (stereo not drawn) [Example 337, 1-(4-(4-((3,3-Dimethylbutyl)sulfonyl)phenyl)-2-methylbut-3-yn-2-yl)-3-(3-methylquinuclidin-3-yl)urea] were, in that order, 14.5 nM, 94.1 nM, 2.54 nM, 2150 nM and 1000 nM.
For `CCC1(NC(=O)NC(C)(C)C#Cc2ccc(S(=O)(=O)CCC(C)(C)C)cc2)CN2CCC1CC2` (stereo not drawn) [Example 338, 1-(4-(4-((3,3-Dimethylbutyl)sulfonyl)phenyl)-2-methylbut-3-yn-2-yl)-3-(3-ethylquinuclidin-3-yl)urea] the same measures were 4.45 nM, 72.1 nM, 0.984 nM, 2150 nM and 1000 nM.
In the case of `COCC(C)(C)c1ccc(C#CC(C)(C)NC(=O)NC2(C)CN3CCC2CC3)cc1` (stereo not drawn) [Example 339, 1-(4-(4-(1-Methoxy-2-methylpropan-2-yl)phenyl)-2-methylbut-3-yn-2-yl)-3-(3-methylquinuclidin-3-yl)urea], the IC50 was 136 nM in assay [1]; 720 nM in assay [2] (setting [4]); 25.7 nM in assay [3] (setting [5]); at least 10000 nM in the assay with B16 mouse melanoma cells (setting [6]); at least 10000 nM in the assay on C32 human melanoma cells (setting [7]).
In the case of `COCCCOc1ccc(-c2nc(C(C)(C)NC(=O)OC3CN4CCC3CC4)cs2)cc1` (stereo not drawn) [Example 340, Quinuclidin-3-yl (2-(2-(4-(3-methoxypropoxy)phenyl)thiazol-4-yl)-propan-2-yl)carbamate], the concentration for half-maximal inhibition (IC50) in assay [1] is 170 nM; in assay [2] (setting [8]) it was 197 nM; in assay [3] (setting [9]), 42.6 nM; in the assay with B16 mouse melanoma cells (setting [12]) it was at least 10000 nM; with C32 human melanoma cells (setting [13]), at least 10000 nM.
As to `COCCCOc1ccc(-c2nc(C(C)(C)NC(=O)OC3CCN4CCC3CC4)cs2)cc1` (stereo not drawn) [Example 341, 1-Azabicyclo[3.2.2]nonan-4-yl (2-(2-(4-(3-methoxypropoxy)phenyl)thiazol-4-yl)propan-2-yl)carbamate], the concentration for half-maximal inhibition (IC50) is 19.3 nM in assay [1]; 90.4 nM in assay [2] (setting [4]); 7.19 nM in assay [3] (setting [5]); at least 10000 nM in the assay on B16 mouse melanoma cells (setting [6]); at least 10000 nM in the assay with C32 human melanoma cells (setting [7]).
Consider `COCCCOc1ccc(-c2nc(C(C)(C)NC(=O)N3CCN4CCC3CC4)cs2)cc1` [Example 342, N-(2-(2-(4-(3-Methoxypropoxy)phenyl)thiazol-4-yl)propan-2-yl)-1,4-diazabicyclo[3.2.2]nonane-4-carboxamide], for which the half-inhibitory concentration (IC50) in assay [1] was 666 nM; in assay [2] (setting [4]), 393 nM; in assay [3] (setting [5]) it was 85.1 nM; in the assay with B16 mouse melanoma cells (setting [6]), at least 10000 nM; with C32 human melanoma cells (setting [7]) it was at least 10000 nM.
As to `COCCOc1ccc(-c2nc(C(C)(C)NC(=O)OC3CN4CCC3CC4)cs2)cc1` (stereo not drawn) [Example 343, Quinuclidin-3-yl (2-(2-(4-(2-methoxyethoxy)phenyl)thiazol-4-yl)propan-2-yl)carbamate], the IC50 is 360 nM in assay [1]; 106 nM in assay [2] (setting [8]); 19.8 nM in assay [3] (setting [9]); at least 10000 nM with B16 mouse melanoma cells (setting [12]); 1000 nM with C32 human melanoma cells (setting [13]).
For the compound `COCCOc1ccc(-c2nc(C(C)(C)NC(=O)OC3CCN4CCC3CC4)cs2)cc1` (stereo not drawn) [Example 344, 1-Azabicyclo[3.2.2]nonan-4-yl (2-(2-(4-(2-methoxyethoxy)phenyl)thiazol-4-yl)propan-2-yl)carbamate], the half-inhibitory concentration (IC50) in assay [1] was 65.8 nM; in assay [2] (setting [4]) it was 56.4 nM; in assay [3] (setting [5]) it was 8.76 nM; in the assay on B16 mouse melanoma cells (setting [6]) it was at least 10000 nM; in the assay with C32 human melanoma cells (setting [7]), 1000 nM.
For `COCCOc1ccc(-c2nc(C(C)(C)NC(=O)N3CCN4CCC3CC4)cs2)cc1` [Example 345, N-(2-(2-(4-(2-Methoxyethoxy)phenyl)thiazol-4-yl)propan-2-yl)-1,4-diazabicyclo[3.2.2]nonane-4-carboxamide] the same measures were 2540 nM, 369 nM, 91 nM, at least 10000 nM and 3160 nM.
On to `COCCOc1ccc(-c2ccc(C(C)(C)NC(=O)OC3CN4CCC3CC4)nc2)cc1` (stereo not drawn) [Example 346, Quinuclidin-3-yl 2-(5-(4-(2-methoxyethoxy)phenyl)pyridin-2-yl)propan-2-ylcarbamate], for which the 50% inhibitory concentration (IC50) is 50.7 nM in assay [1]; 266 nM in assay [2] (setting [8]); 11.1 nM in assay [3] (setting [9]); at least 10000 nM in the assay with B16 mouse melanoma cells (setting [12]); 3160 nM with C32 human melanoma cells (setting [13]).
